Experiment: Thermogravimetric analysis (TGA), thermal stability
Type: physicochemical
Settings: Trios V3.0, 10° C./min, N2 atmosphere; FIG. 7
Experimental: Thermogravimetric analysis (TGA) and differential scanning calorimetry (DSC) analysis of the polymerizable liquid crystal compound according to Synthesis Example 1 are performed by using Trios V3.0 (TA Instrument, 10° C./min, N2 atmosphere). FIG. 7 is a drawing showing the thermogravimetric analysis of the polymerizable liquid crystal compound 1a-5 according to Synthesis Example 1, and FIG. 8 is a drawing showing the differential scanning calorimetry (DSC) analysis of the polymerizable liquid crystal compound 1a-5 according to Synthesis Example 1.
Referring to FIG. 7, the polymerizable liquid crystal compound 1a-5 of Synthesis Example 1 is decomposed at a temperature of greater than or equal to 300° C.

Decomposition temperature (TGA): greater than or equal to 300 °C
Structure (SMILES): C=CC(=O)OCCCOc1ccc(C(=O)OCc2ccc(C(=O)Oc3ccc(OC(=O)c4ccc(COC(=O)c5ccc(OCCCOC(=O)C=C)cc5)cc4)cc3)cc2)cc1 [Compound 1a-5]

Reference: patent US9567524B2, “Polymerizable liquid crystal compound, and compensation film, antireflective film, and display device including the same” (SAMSUNG ELECTRONICS CO., LTD., priority 2015, dated 2017)
